Read-outs that look alike come from different tables or passages of the source.
Tests used:
[1] = system: cytotoxicity or splicing modulation; assay: Rapid onset of cytotoxicity or splicing modulation; assay type: cell-based; conditions: maximum cytotoxicity or splicing modulation within 5 hours of drug treatment
Method: The cell were seeded in of 100 μl of medium into 96-well plates (HeLa at 4×10^4 cell/well; SK_MEL_2 at 6×10^4 cell/well), they were allowed to attach overnight, and then treatments started by adding 50 μl of medium containing Sudemycin D6 to produce a final concentration of 1 μM and DMSO to 0.5% v/v final into the experimental well. Continuous drug treatments were run in the same plate, using concentrations of 0, 62.5, 125, 250, 500 & 1000 nM final. DMSO was added into all wells, including non-treated wells to 0.5% v/v final concentration. For wells where the drug was withdrawn, the medium was carefully aspirated after 1, 2, 3 and 4 hours after the addition of the drug, the cells were washed once with PBS and then 150 μl of fresh cell culture medium containing 0.5% v/v DMSO was added into all washed out wells. After 72 hours of the addition of drug, the cell viability was determined using CellTiter-Glo luminescent cell viability assay (Promega, Madison, Wis.), and Sudemycin D6 cytotoxicity was calculated as the percentage of cell proliferation inhibition against the control treatment DMSO.

[2] = Mouse plasma stability (HPLC); assay type: in vitro ADME; conditions: mouse plasma at 37° C.
[3] = system: MDM2 alternative splicing in Rh18 cells; assay: In vitro alternative splicing assay (MDM2, RT-PCR); assay type: cell-based; conditions: for MDM2 Splicing Effects: Rh18 cells, 8 h exposure, Table II
Method: Briefly, following an 8 h exposure of exponentially growing cells to drug, total RNA was isolated using TRIzol reagent (Invitrogen, Carlsbad, Calif.). Total RNA (1 μg) was used to convert the mRNA to cDNA by using random primers, Oligo(dT)16 and Omniscript Reverse Transcription Kit (Qiagen, Germantown, Md.). PCR analyses were performed using specific oligonucleotides (see Table I) and standard amplification protocols. PCR products were separated by agarose gel electrophoresis, visualized by ethidium bromide staining on an UV transilluminator, and recorded. PCR band sizes were calculated by comparing them to the standard EZ Load 100-bp PCR Molecular Ruler (BioRad Laboratories, Hercules, Calif.).

[4] = system: JeKo1; assay: In vitro cytotoxicity analysis, JeKo1; assay type: cell-based; conditions: Homo sapiens, JeKo-1
Excerpt: (§1) The A549 lung cancer, WiDr colorectal cancer, MCF-7 breast cancer, PC-3 prostate cancer, and OVCAR-3 ovarian cancer cell lines were purchased from the American Type Culture Collection (ATCC, Manassas, Va.) and were maintained in growth media as recommended by the ATCC. The JeKo-1 and JVM-2 mantle cell lymphoma cell lines were purchased from the DSMZ (Brunswick, Germany) and were maintained in growth media as recommended by the vendor. The pediatric rhabdomyosarcoma Rh18 cell line was provided y Dr. P. Houghton (Ohio State University—Nationwide Children's Hospital, Columbus, Ohio) and were maintained in growth media as recommended by Dr. Houghton. All cell culture media were supplemented with L-glutamine and penicillin/streptomycin. All cells were grown under standard culture conditions in CO2 incubators, at 37° C., with 5% CO2, and 100% relative humidity.
(§2) Cell viabilities were determined by measuring the cleavage of (sodium 3′-[1-(phenylaminocarbonyl)-3,4-tetrazolium]-bis(4-methoxy-6-nitro)benzene sulfonic acid hydrate) (XTT) to a water-soluble orange formazan by mitochondrial dehydrogenase, following the manufacturer's instructions (Roche Applied Science, Indianapolis, Ind.). Briefly, cell lines were seeded at various cell densities depending on the cell type. The adherent cell lines were allowed to adhere overnight before compound addition, whereas the suspension cell lines were seeded the day of compound addition. Stock concentrations of the compounds were made in DMSO, diluted in culture media and subsequently added to the plates at various final concentrations, then incubated for 72 hours. After the incubation period, the XTT labeling reagent, containing the electron-coupling reagent, was added to each well and incubated for 4 hours. The absorbance of each well was then read at 490 nm with a reference wavelength of 690 nm using a VersaMax™ microplate reader (Sunnyvale, Calif.). Data are expressed as the percentage of growth compared to vehicle-treated cells, as calculated from absorbance and corrected for background absorbance.
(§3) Alternatively, cell lines were seeded in 100 μL cell culture medium in 96-well plates. Depending on the cell proliferation rate, cells were seeded at 4,000 to 6,000 cells/well. Suspension cell cultures were initiated with 20,000 cells/well. The cells were incubated overnight at 37° C., and then the drug treatments were started by adding 50 μL medium containing the corresponding drug dilution and DMSO. The final concentration of DMSO onto the cells was 0.5% v/v in all wells. The cells viability was determined using the CellTiter-Glo Luminescent Cell Viability Assay (Promega, Madison, Wis.). The CellTiter-Glo reagent was prepared according to the manufacturer's instructions, and then 50 μL reagent was added to each well for 1 h at rt. The luminescence was measured on an Envision Multilabel Plate Reader (PerkinElmer, Waltham, Mass.). The IC50 values were calculated from the dose-response curve analysis with GraphPad Prism 6.01 (GraphPad Software, La Jolla, Calif.) using the nonlinear regression model 4 Parameter Logistic. Nine concentrations were generated by 1:2 serial dilutions for each IC50 assay. Each drug concentration was evaluated in triplicate or quadruplicate.

[5] = Solubility in phosphate buffered saline (HPLC); assay type: physicochemical
[6] = system: PC3; assay: In vitro cytotoxicity analysis, PC3; assay type: cell-based; conditions: Homo sapiens
Excerpt: as §1, §2, §3

[7] = system: SK-MEL-2; assay: Drug combination assay, SK-MEL-2; assay type: cell-based; conditions: for Interaction Type: listed drug combined with compound 19, Ineffective = drug IC50 much higher than 1 μM
Method: (§4) Preliminary cytotoxic screenings for each drug used in drug combination assays were performed to determine their cytotoxic dose range. […] Eight concentrations were established by 1:3 serial dilutions of the single drugs and their combinations with the splicing modulators. All drug concentrations were evaluated in triplicate in 96-well cell culture plates. Assays of individual drugs and drug combinations were run on the same tissue culture plate. Cell viability was determined using the CellTiter-Glo reagent.
(§5) Luminescence data obtained from the cell viability determinations were formatted per the requirements of the analytical software (viability data range: >0 and <1). The formatted data were analyzed with the software CalcuSyn 2.1 (Biosoft, Cambridge, UK), which provides quantitative CI values for the drug interaction analyses (see ranges in Supplementary Table S2).

[8] = system: cell lines investigated; assay: Drug combination assays, cell line not stated; assay type: cell-based
Method: as §4, §5

[9] = system: HeLa; assay: Drug combination assay, HeLa; assay type: cell-based
Method: as §4, with “reagent. Drug interactions, in terms of synergism, additive effect, or antagonism, were based on the drugs' Combination Index (CI) (Chou et al., Adv. Enzyme Regul. 1984, 22, 27).” for “reagent.”
as §5, with “S2). […] Therefore, in these two cases the drug interaction was evaluated by comparing the IC50 value of Sudemycin with that of the IC50 values resulting from the serial dilutions of the splicing modulator combined with a constant dose of the non-toxic drug.” for “S2).”

[10] = system: WiDr; assay: Drug combination assay, WiDr; assay type: cell-based; conditions: inhibitor + compound 19
Method: as §4, with “reagent. Drug interactions, in terms of synergism, additive effect, or antagonism, were based on the drugs' Combination Index (CI) (Chou et al., Adv. Enzyme Regul. 1984, 22, 27).” for “reagent.”
as §5, with “S2). […] Therefore, in these two cases the drug interaction was evaluated by comparing the IC50 value of Sudemycin with that of the IC50 values resulting from the serial dilutions of the splicing modulator combined with a constant dose of the non-toxic drug.” for “S2).”

[11] = system: PC-3; assay: Drug combination assay, PC-3; assay type: cell-based; conditions: inhibitor + compound 19
Method: as §4, with “reagent. Drug interactions, in terms of synergism, additive effect, or antagonism, were based on the drugs' Combination Index (CI) (Chou et al., Adv. Enzyme Regul. 1984, 22, 27).” for “reagent.”
as §5, with “S2). […] Therefore, in these two cases the drug interaction was evaluated by comparing the IC50 value of Sudemycin with that of the IC50 values resulting from the serial dilutions of the splicing modulator combined with a constant dose of the non-toxic drug.” for “S2).”

[12] = system: Sk-N-AS; assay: Drug combination assay, Sk-N-AS neuroblastoma; assay type: cell-based; conditions: Sk-N-AS; inhibitor + compound 19
Method: as §4, §5

[13] = system: AML blast cells with wild-type or mutant S34F U2AF1, CD34+ cells; assay: Replication by 5-ethynyl-2′-deoxyuridine incorporation; assay type: cell-based; conditions: concentration dependent; mutant vs wild-type U2AF1 AML blasts vs CD34+ cells
Method: Replication was determined from incorporation of 5-ethynyl-2′-deoxyuridine using standard assay techniques.

[14] = system: c-kit positive bone marrow cells transduced with GFP, WT-U2AF1 or MUT-U2AF1 (S34F); assay: GFP expression and apoptosis in U2AF1 transduced cells; assay type: cell-based, C57BL/6 mice
Method: Bone marrow was collected from C57BL/6 mice and pooled together in a single solution, and then c-kit positive cells were selected. The c-kit positive cells were cultured with media enriched with stem cell factor (SCF), Flt-3, IL3, and thromboprotein (TPO), and other cytokines. Murine stem cell virus (MSCV) was used to transduce these cells with one of three constructs as indicated in the figure: GFP (control), U2AF1-IRES-GFP (indicated as WT-U2AF1 in the figure), or U2AF1^S34F-IRES-GFP (indicated as MUT-U2AF1 in the figure). The transduced cells carry a construct that expresses GFP and as indicated wild-type or mutant U2AF1. The control cells construct expresses only GFP. […] The assay data are expressed as the percentage of annexin V stained cells among the GFP positive cells. […] These cells show an increased tendency to apoptosis (i.e. increased expression of annexin V) in the GFP positive cells.

[15] = PC-3, Table III, read-out: PC3 IC50

Compound: CC(/C=C/[C@@H]1C[C@]2(CO2)CC(C)(C)O1)=C\C[C@H]1CC[C@@H](NC(=O)/C=C\[C@H](C)OC(=O)C(C)C)CC1
- Rapid Onset [1]: Yes (“Yes” indicates maximum cytotoxicity or splicing modulation is seen within 5 hours of drug treatment.)
- Plasma Stability [2]: No
- MDM2 Splicing Effects [3]: Yes
- IC50 ([4]; Table II): 47 nM
- Buffer Soluble [5]: No

Compound: CCCCNC(=O)O[C@@H](C)/C=C\C(=O)N[C@H]1CO[C@@H](C/C=C(C)/C=C/[C@@H]2C[C@]3(CO3)CC(C)(C)O2)OC1
- IC50 [6, 15]: > 10000 nM
- IC50 ([4]; Table III): > 1000 nM

Compound: CCN(CC)C(=O)O[C@@H](C)/C=C\C(=O)N[C@H]1CO[C@@H](C/C=C(C)/C=C/[C@@H]2C[C@]3(CO3)CC(C)(C)O2)OC1
- IC50 ([6]; PC-3, read-out: PC3 IC50): > 10000 nM
- IC50 ([4]; Table III): > 1000 nM

Compound: COCCNC(=O)O[C@@H](C)/C=C\C(=O)N[C@H]1CO[C@@H](C/C=C(C)/C=C/[C@@H]2C[C@]3(CO3)CC(C)(C)O2)OC1
- IC50 [6, 15]: > 10000 nM
- IC50 ([4]; Table III): > 1000 nM

Compound: CNC(=O)O[C@@H](C)/C=C\C(=O)N[C@H]1CO[C@@H](C/C=C(C)/C=C/[C@@H]2C[C@]3(CO3)CC(C)(C)O2)OC1
- IC50 ([6]; PC-3, read-out: PC3 IC50): > 10000 nM
- IC50 ([4]; Table III): 900 nM

Compound: CC(/C=C/[C@@H]1C[C@]2(CO2)CC(C)(C)O1)=C\C[C@H]1OC[C@@H](NC(=O)/C=C\[C@H](C)OC(N)=O)CO1
- IC50 [6, 15]: > 10000 nM
- IC50 ([4]; Table III): 1900 nM

Compound: O=C(O)CCCCCCCCCCCNC(=O)NC12CC3CC(CC(C3)C1)C2 [AUDA]
- Interaction Type [7]: Synergism (0.3-0.7)
- drug interaction with compound 19 (panel of 23 drugs) [8]: synergy
- cytotoxic effect of drug alone ([8]; single drug in combination assays): Neither AUDA nor NCND alone produced a cytotoxic effect
- cytotoxicity alone ([9]; HeLa cells, 15 μM): not cytotoxic

Compound: C=CCN(/C=C1/C(=O)O[C@H](COC)[C@@]2(C)C1=C(O)C(=O)C1=C2[C@H](OC(C)=O)C[C@]2(C)C(=O)CC[C@@H]12)CC=C [PX-866]
- CI of 19 + inhibitor [10]: 0.33
- CI in SK-MEL-2 with compound 19 ([7]; Combination Index at ED50, CalcuSyn 2.1, listed drug + compound 19): 0.57
- CI of 19 + inhibitor ([7]; SK-MEL-2, inhibitor + compound 19): 0.57
- Interaction Type [7]: Synergism (0.3-0.7)
- drug interaction with compound 20 [8]: demonstrated synergy
- CI of 19 + inhibitor ([9]; HeLa, inhibitor + compound 19): 0.49
- CI of 19 + inhibitor [11]: 0.67
- CI of 19 + inhibitor [12]: 0.65

Compound: CC(/C=C/[C@@H]1C[C@]2(CO2)CC(C)(C)O1)=C\C[C@H]1CC[C@@H](NC(=O)/C=C\[C@H](C)OC(=O)N(C)C)CC1 [compound 19, (S,Z)-5-(((1R,4R)-4-((2E,4E)-5-((3R,5S)-7,7-Methyl-1,6-Dioxaspiro[2.5]Octan-5-Yl)-3-Methylpenta-2,4-Dien-1-Yl)Cyclohexyl)Amino)-5-Oxopent-3-En-2-Yl Dimethylcarbamate]
- effect on replication [13]: cells expressing mutant U2AF1 are extremely sensitive
- alternative MDM2 splicing ([3]; Rh18, 8 h, PCR (FIG. 9)): induction of alternative MDM2 splicing
- synergy with PI3K/mTOR inhibition ([8]; all cell lines investigated): synergy is also seen
- apoptosis (annexin V stained cells among GFP positive cells) ([14]; 75 or 100 nM): cells expressing mutant U2AF1 the most sensitive
- effect on expression of GFP from the splicing construct ([14]; concentration dependent, GFP vs WT-U2AF1 vs MUT-U2AF1 cells): greater sensitivity realized in the mutant U2AF1 cells

Compound: CNC(=O)O[C@@H](C)/C=C\C(=O)N[C@H]1CC[C@@H](C/C=C(C)/C=C/[C@@H]2C[C@]3(CO3)CC(C)(C)O2)CC1 [drawing 208]
- Rapid Onset [1]: Yes (“Yes” indicates maximum cytotoxicity or splicing modulation is seen within 5 hours of drug treatment.)
- Plasma Stability [2]: Yes (“Yes” indicates mouse plasma stability is >5 hours in mouse plasma at 37 °C as determined by HPLC.)
- MDM2 Splicing Effects [3]: Yes
- IC50 ([4]; Table II): 22 nM
- solubility ([5]; aqueous buffer, read-out: Buffer Soluble): > 10 µM

— patent US9682993B2, “Anticancer compounds” (ST. JUDE CHILDREN'S RESEARCH HOSPITAL, priority 2012, dated 2017)
